The record followed here is article PMC12141046 (2025).

The test system of test [1] is G4 MYC (DNA, G4) TGAGGGTGGGTAGGGTGGGTAA
The test is described as follows: fluorescent intercalator displacement. The following applies: 100 mM K+, 10 mM lithium cacodylate pH 7.3, thiazole orange displaced.

Test [2] concerns dsDNA (DNA, duplex) CAATCGGATCGAATTCGATCCGATTG
Put plainly: fluorescent intercalator displacement. The note with it: 100 mM K+, 10 mM lithium cacodylate pH 7.3, thiazole orange displaced.

Test [3] concerns G4 MYC (DNA, G4) TGAGGGTGGGTAGGGTGGGTAA
The test is described as follows: CD titration. The note with it: 100 mM Li+, 10 mM Tris-HCl pH 7.4, 20 °C, 10 µM DNA.

Test [4] deals with G4 KIT1 (DNA, G4) AGGGAGGGCGCTGGGAGGAGGG
The test is described as follows: CD titration. The following applies: 100 mM Li+; 10 mM Tris-HCl pH 7.4, 20 °C; 10 µM DNA; 405 nm illuminated; G4 induction.

Take `NCCOc1cc(NC(=O)c2ccc3c(c2)/N=N/c2cc(-c4ccc(N5CCCCC5)cc4)ccc2CC3)nc2ccccc12`: in test [1], the apparent Kd (commonly a dissociation constant that holds for the conditions of the assay) turned out to be 760 ± 130 nM.
On the same count and under the same terms, the result for `NCCOc1cc(NC(=O)c2ccc3c(c2)/N=N/c2cc(-c4ccc5cccnc5c4)ccc2CC3)nc2ccccc12` reads 1000 ± 30 nM.
With `NCCOc1cc(NC(=O)c2ccc3c(c2)/N=N/c2cc(-c4ccc5ncccc5c4)ccc2CC3)nc2ccccc12`, in test [1], the “apparent Kd” value worked out at 940 ± 30 nM.
Still for that read-out and setting: the result for `NCCOc1cc(NC(=O)c2ccc3c(c2)/N=N/c2cc(-c4cnc5ccccc5c4)ccc2CC3)nc2ccccc12` reads 970 ± 60 nM.
The compound `NCCOc1cc(NC(=O)c2ccc3c(c2)/N=N/c2cc(C4=CCN(CCNC(=O)CCOCCOCCOCCOCCNC(=O)CCCC[C@@H]5SC[C@@H]6NC(=O)N[C@@H]65)CC4)ccc2CC3)nc2ccccc12` returned a DC50 in test [1] (normalized to trans isomer) of 1580 ± 50 nM. For the same compound, the “apparent Kd” value in test [1] (derived from normalized DC50) came to 630 ± 20 nM. Further, the binding entry in test [2] (highest 5 µM, 405 nm illuminated) is “no”.
Consider `NCCOc1cc(NC(=O)c2ccc3c(c2)/N=N/c2cc(C4=CCNCC4)ccc2CC3)nc2ccccc12`, for which the binding result was “yes” in test [3] (405 nm illuminated, parallel G4 induction); “yes” in test [4]; “no” in test [2] (405 nm illuminated). Moreover, the DC50 in test [1] (normalized to trans isomer) was 1150 ± 60 nM. In test [1] (derived from DC50 normalized to trans isomer), the “apparent Kd” value was determined as 460 ± 20 nM.
Take `NCCOc1cc(NC(=O)c2ccc3c(c2)/N=N\c2cc(C4=CCNCC4)ccc2CC3)nc2ccccc12`: the binding entry in test [3] (dark, slight shift at 30 µM) is on record as “weak”; in test [2] (dark) it was “no”. In test [1] (dark), this compound returned a DC50 of 12460 ± 650 nM. In addition, the “apparent Kd” value in test [1] (dark, b14 prints error as 0.65) was determined as 4970 ± 260 nM.
